System: 653999-131-R-J2-PDC complex spheroid viability
Assay: Anticancer human tumor 653999-131-R-J2-PDC patient-derived lung adenocarcinoma cell line growth inhibition
Details: for IC50: curve of first compound; for viability, T/C: stronger effect = lower value
In short: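 Multicellular complex spheroids of tumor cells with human endothelial cells (HUVEC) and mesenchymal stem cells; the LSD1 inhibitor iadademstat was combined with standard-of-care or investigational agents. Top concentration at or near clinical Cmax, half-log dilutions; final DMSO ≤0.25%.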

[1] = second compound 0.1 µM, first compound 0.0316 µM
[2] = second compound 0.1 µM, first compound 0.1 µM
[3] = second compound 0.1 µM, first compound 0.316 µM
[4] = second compound 0.1 µM, first compound 1 µM
[5] = second compound 0.316 µM, first compound 0.0316 µM
[6] = second compound 0.316 µM, first compound 0.1 µM
[7] = second compound 0.316 µM, first compound 0.316 µM
[8] = second compound 0.316 µM, first compound 1 µM
[9] = second compound 1 µM, first compound 0.0316 µM
[10] = second compound 1 µM, first compound 0.1 µM
[11] = second compound 1 µM, first compound 0.316 µM
[12] = second compound 1 µM, first compound 1 µM
[13] = second compound 3.16 µM, first compound 0.0316 µM
[14] = second compound 3.16 µM, first compound 0.1 µM
[15] = second compound 3.16 µM, first compound 0.316 µM
[16] = second compound 3.16 µM, first compound 1 µM
[17] = second compound 10 µM, first compound 0.0316 µM
[18] = second compound 10 µM, first compound 0.1 µM
[19] = second compound 10 µM, first compound 0.316 µM
[20] = second compound 10 µM, first compound 1 µM
[21] = second compound 0.1 µM, first compound 0.00316 µM
[22] = second compound 0.1 µM, first compound 0.01 µM
[23] = second compound 0.316 µM, first compound 0.00316 µM
[24] = second compound 0.316 µM, first compound 0.01 µM
[25] = second compound 1 µM, first compound 0.00316 µM
[26] = second compound 1 µM, first compound 0.01 µM
[27] = second compound 3.16 µM, first compound 0.00316 µM
[28] = second compound 3.16 µM, first compound 0.01 µM
[29] = second compound 10 µM, first compound 0.00316 µM
[30] = second compound 10 µM, first compound 0.01 µM
[31] = second compound 0.1 µM, first compound 0.00949 µM
[32] = second compound 0.1 µM, first compound 0.03 µM
[33] = second compound 0.1 µM, first compound 0.0949 µM
[34] = second compound 0.1 µM, first compound 0.3 µM
[35] = second compound 0.316 µM, first compound 0.00949 µM
[36] = second compound 0.316 µM, first compound 0.03 µM
[37] = second compound 0.316 µM, first compound 0.0949 µM
[38] = second compound 0.316 µM, first compound 0.3 µM
[39] = second compound 1 µM, first compound 0.00949 µM
[40] = second compound 1 µM, first compound 0.03 µM
[41] = second compound 1 µM, first compound 0.0949 µM
[42] = second compound 1 µM, first compound 0.3 µM
[43] = second compound 3.16 µM, first compound 0.00949 µM
[44] = second compound 3.16 µM, first compound 0.03 µM
[45] = second compound 3.16 µM, first compound 0.0949 µM
[46] = second compound 3.16 µM, first compound 0.3 µM
[47] = second compound 10 µM, first compound 0.00949 µM
[48] = second compound 10 µM, first compound 0.03 µM
[49] = second compound 10 µM, first compound 0.0949 µM
[50] = second compound 10 µM, first compound 0.3 µM
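Note: spheroids exposed to agents for seven days before readout.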

CC(C)c1c(-c2ccccc2)nc2c(C#N)c[nH]n2c1=O + NC1CC1c1ccc(-c2cccc(O)c2)cc1
IC50 (second compound 0.1 µM): > 10 µM
IC50 (second compound 0.316 µM): > 10 µM
IC50 (second compound 1 µM): > 10 µM
IC50 (second compound 3.16 µM): > 10 µM
IC50 (second compound 10 µM): > 10 µM
viability, T/C [1]: 87.3%
viability, T/C [2]: 96.5%
viability, T/C [3]: 89.1%
viability, T/C [4]: 76.9%
viability, T/C (second compound 0.1 µM, first compound 3.16 µM): 80.1%
viability, T/C (second compound 0.1 µM, first compound 10 µM): 80.5%
viability, T/C [5]: 84%
viability, T/C [6]: 83.7%
viability, T/C [7]: 90.9%
viability, T/C [8]: 74.8%
viability, T/C (second compound 0.316 µM, first compound 3.16 µM): 64.2%
viability, T/C (second compound 0.316 µM, first compound 10 µM): 66.2%
viability, T/C [9]: 73.1%
viability, T/C [10]: 87.2%
viability, T/C [11]: 86.1%
viability, T/C [12]: 77.8%
viability, T/C (second compound 1 µM, first compound 3.16 µM): 66.7%
viability, T/C (second compound 1 µM, first compound 10 µM): 72.2%
viability, T/C [13]: 84.2%
viability, T/C [14]: 72.5%
viability, T/C [15]: 80.2%
viability, T/C [16]: 68.7%
viability, T/C (second compound 3.16 µM, first compound 3.16 µM): 77.5%
viability, T/C (second compound 3.16 µM, first compound 10 µM): 76.8%
viability, T/C [17]: 80.8%
viability, T/C [18]: 73.8%
viability, T/C [19]: 77.4%
viability, T/C [20]: 76.5%
viability, T/C (second compound 10 µM, first compound 3.16 µM): 68.9%
viability, T/C (second compound 10 µM, first compound 10 µM): 65.6%

CC[C@@]1(O)C(=O)OCc2c1cc1n(c2=O)Cc2cc3c(CN(C)C)c(O)ccc3nc2-1 + NC1CCC(NC2CC2c2ccccc2)CC1
IC50 (second compound 0.1 µM): 0.00465 µM
IC50 (second compound 0.316 µM): 0.00523 µM
IC50 (second compound 1 µM): 0.0048 µM
IC50 (second compound 3.16 µM): 0.00551 µM
IC50 (second compound 10 µM): 0.00687 µM
viability, T/C (second compound 0.1 µM, first compound 0.000316 µM): 89.3%
viability, T/C (second compound 0.1 µM, first compound 0.001 µM): 85.3%
viability, T/C [21]: 50.7%
viability, T/C [22]: 40.2%
viability, T/C [1]: 27.5%
viability, T/C [2]: 19.8%
viability, T/C (second compound 0.316 µM, first compound 0.000316 µM): 87%
viability, T/C (second compound 0.316 µM, first compound 0.001 µM): 80.4%
viability, T/C [23]: 57.9%
viability, T/C [24]: 37.9%
viability, T/C [5]: 26.2%
viability, T/C [6]: 18%
viability, T/C (second compound 1 µM, first compound 0.000316 µM): 94.7%
viability, T/C (second compound 1 µM, first compound 0.001 µM): 73.2%
viability, T/C [25]: 61.6%
viability, T/C [26]: 35.9%
viability, T/C [9]: 25.1%
viability, T/C [10]: 21.6%
viability, T/C (second compound 3.16 µM, first compound 0.000316 µM): 78.7%
viability, T/C (second compound 3.16 µM, first compound 0.001 µM): 75.3%
viability, T/C [27]: 52.7%
viability, T/C [28]: 44.1%
viability, T/C [13]: 29.9%
viability, T/C [14]: 20.7%
viability, T/C (second compound 10 µM, first compound 0.000316 µM): 91.9%
viability, T/C (second compound 10 µM, first compound 0.001 µM): 77.9%
viability, T/C [29]: 63.9%
viability, T/C [30]: 44.3%
viability, T/C [17]: 27.1%
viability, T/C [18]: 19.7%

COc1cc(C2c3cc4c(cc3C(OC3OC5COC(C)OC5C(O)C3O)C3COC(=O)C23)OCO4)cc(OC)c1O (stereo not given) + NC1CCC(NC2CC2c2ccccc2)CC1
IC50 (second compound 0.1 µM): 0.0884 µM
IC50 (second compound 0.316 µM): 0.123 µM
IC50 (second compound 1 µM): 0.0645 µM
IC50 (second compound 3.16 µM): 0.168 µM
IC50 (second compound 10 µM): 0.241 µM
viability, T/C [31]: 70.8%
viability, T/C [32]: 61.6%
viability, T/C [33]: 48.6%
viability, T/C [34]: 38.2%
viability, T/C (second compound 0.1 µM, first compound 0.949 µM): 37.6%
viability, T/C (second compound 0.1 µM, first compound 3 µM): 28.3%
viability, T/C [35]: 68.6%
viability, T/C [36]: 63.7%
viability, T/C [37]: 54.5%
viability, T/C [38]: 36.6%
viability, T/C (second compound 0.316 µM, first compound 0.949 µM): 31.3%
viability, T/C (second compound 0.316 µM, first compound 3 µM): 29.7%
viability, T/C [39]: 74.5%
viability, T/C [40]: 52.6%
viability, T/C [41]: 50.2%
viability, T/C [42]: 35.7%
viability, T/C (second compound 1 µM, first compound 0.949 µM): 37.5%
viability, T/C (second compound 1 µM, first compound 3 µM): 26.8%
viability, T/C [43]: 71.5%
viability, T/C [44]: 66.6%
viability, T/C [45]: 55.9%
viability, T/C [46]: 44.9%
viability, T/C (second compound 3.16 µM, first compound 0.949 µM): 31.3%
viability, T/C (second compound 3.16 µM, first compound 3 µM): 30.3%
viability, T/C [47]: 68.3%
viability, T/C [48]: 60.6%
viability, T/C [49]: 57.7%
viability, T/C [50]: 49.9%
viability, T/C (second compound 10 µM, first compound 0.949 µM): 37.3%
viability, T/C (second compound 10 µM, first compound 3 µM): 31.3%

Nc1ccn(C2OC(CO)C(O)C2(F)F)c(=O)n1 (stereo not given) + NC1CCC(NC2CC2c2ccccc2)CC1
IC50 (second compound 0.1 µM): 0.00836 µM
IC50 (second compound 0.316 µM): 0.00264 µM
IC50 (second compound 1 µM): 0.00734 µM
IC50 (second compound 3.16 µM): 0.00664 µM
IC50 (second compound 10 µM): 0.023 µM
viability, T/C (second compound 0.1 µM, first compound 0.000949 µM): 64.2%
viability, T/C (second compound 0.1 µM, first compound 0.003 µM): 62.6%
viability, T/C [31]: 46.7%
viability, T/C [32]: 38.7%
viability, T/C [33]: 34.5%
viability, T/C [34]: 30.1%
viability, T/C (second compound 0.316 µM, first compound 0.000949 µM): 58.4%
viability, T/C (second compound 0.316 µM, first compound 0.003 µM): 45.5%
viability, T/C [35]: 47.8%
viability, T/C [36]: 30.8%
viability, T/C [37]: 30.6%
viability, T/C [38]: 27.3%
viability, T/C (second compound 1 µM, first compound 0.000949 µM): 56%
viability, T/C (second compound 1 µM, first compound 0.003 µM): 55.8%
viability, T/C [39]: 48.4%
viability, T/C [40]: 36.6%
viability, T/C [41]: 34.8%
viability, T/C [42]: 31.3%
viability, T/C (second compound 3.16 µM, first compound 0.000949 µM): 70.5%
viability, T/C (second compound 3.16 µM, first compound 0.003 µM): 52.2%
viability, T/C [43]: 47.5%
viability, T/C [44]: 45%
viability, T/C [45]: 34.8%
viability, T/C [46]: 33.1%
viability, T/C (second compound 10 µM, first compound 0.000949 µM): 65.2%
viability, T/C (second compound 10 µM, first compound 0.003 µM): 64.7%
viability, T/C [47]: 59%
viability, T/C [48]: 47.8%
viability, T/C [49]: 40.4%
viability, T/C [50]: 43.8%

Nc1ncn(C2CC(O)C(CO)O2)c(=O)n1 (stereo not given) + NC1CCC(NC2CC2c2ccccc2)CC1
IC50 (second compound 0.1 µM): > 1 µM
IC50 (second compound 0.316 µM): > 1 µM
IC50 (second compound 1 µM): > 1 µM
IC50 (second compound 3.16 µM): > 1 µM
IC50 (second compound 10 µM): > 1 µM
viability, T/C [21]: 102%
viability, T/C [22]: 89.1%
viability, T/C [1]: 91.4%
viability, T/C [2]: 69%
viability, T/C [3]: 68.9%
viability, T/C [4]: 70.7%
viability, T/C [23]: 93.3%
viability, T/C [24]: 105%
viability, T/C [5]: 87.5%
viability, T/C [6]: 82.7%
viability, T/C [7]: 75.8%
viability, T/C [8]: 64.4%
viability, T/C [25]: 92.1%
viability, T/C [26]: 86.5%
viability, T/C [9]: 86.9%
viability, T/C [10]: 75.1%
viability, T/C [11]: 81.8%
viability, T/C [12]: 62%
viability, T/C [27]: 87.1%
viability, T/C [28]: 87.6%
viability, T/C [13]: 94.2%
viability, T/C [14]: 81.4%
viability, T/C [15]: 77.4%
viability, T/C [16]: 78%
viability, T/C [29]: 93.5%
viability, T/C [30]: 99.3%
viability, T/C [17]: 85.8%
viability, T/C [18]: 86.6%
viability, T/C [19]: 73.3%
viability, T/C [20]: 82.5%

— PubChem BioAssay AID1918939 (Molecular Pharmacology Branch, DTP, NCI, 2023)
